Data taken from patent publication US9708318B2, “Bicyclic heterocycles as FGFR4 inhibitors” (Incyte Corporation, priority 2015, dated 2017).
pIC50: −log10 of the molar value. Where two headings read alike, the source gives them in different places.

Columns and labels:
FGFR2 = FGFR2 (Homo sapiens (Human), UniProt P21802); experiment: FGFR Enzymatic Assay (FRET peptide phosphorylation), FGFR2; format: biochemical
Experimental: (§1) The inhibitor potency of the exemplified compounds was measured in an enzyme assay that measures peptide phosphorylation using FRET measurements to detect product formation. Inhibitors were serially diluted in DMSO and a volume of 0.5 μL was transferred to the wells of a 384-well plate.
(§2) The enzymes were purchased from Millipore or Invitrogen.
(§3) GraphPad prism3 was used to analyze the data.

FGFR3 enzyme = FGFR3 enzyme (Homo sapiens (Human), UniProt P22607); experiment: FGFR Enzymatic Assay (FRET peptide phosphorylation), FGFR3; format: biochemical; conditions: for FGFR1/FGFR3 IC50 ratio / FGFR4/FGFR3 IC50 ratio: FGFR3 selectivity
Experimental: as §1, §3

FGFR4 = FGFR4 (Homo sapiens (Human), UniProt P22455); experiment: FGFR Enzymatic Assay (FRET peptide phosphorylation), FGFR4; format: biochemical; conditions: for FGFR1/FGFR4 IC50 ratio / FGFR2/FGFR4 IC50 ratio / FGFR3/FGFR4 IC50 ratio: FGFR4 selectivity
Experimental: as §1, §2, §3

FGFR1 = FGFR1 (Homo sapiens (Human), UniProt P11362); experiment: FGFR Enzymatic Assay (FRET peptide phosphorylation), FGFR1; conditions: for IC50: FGFR1 IC50 (nM)
[1] = pre-incubated for 4 hours, read-out: FGFR3 IC50
[2] = read-out: FGFR1 IC50, pre-incubated for 4 hours
[3] = pre-incubated for 5 to 10 minutes

Chain of FGFR4 (P22455 22-802): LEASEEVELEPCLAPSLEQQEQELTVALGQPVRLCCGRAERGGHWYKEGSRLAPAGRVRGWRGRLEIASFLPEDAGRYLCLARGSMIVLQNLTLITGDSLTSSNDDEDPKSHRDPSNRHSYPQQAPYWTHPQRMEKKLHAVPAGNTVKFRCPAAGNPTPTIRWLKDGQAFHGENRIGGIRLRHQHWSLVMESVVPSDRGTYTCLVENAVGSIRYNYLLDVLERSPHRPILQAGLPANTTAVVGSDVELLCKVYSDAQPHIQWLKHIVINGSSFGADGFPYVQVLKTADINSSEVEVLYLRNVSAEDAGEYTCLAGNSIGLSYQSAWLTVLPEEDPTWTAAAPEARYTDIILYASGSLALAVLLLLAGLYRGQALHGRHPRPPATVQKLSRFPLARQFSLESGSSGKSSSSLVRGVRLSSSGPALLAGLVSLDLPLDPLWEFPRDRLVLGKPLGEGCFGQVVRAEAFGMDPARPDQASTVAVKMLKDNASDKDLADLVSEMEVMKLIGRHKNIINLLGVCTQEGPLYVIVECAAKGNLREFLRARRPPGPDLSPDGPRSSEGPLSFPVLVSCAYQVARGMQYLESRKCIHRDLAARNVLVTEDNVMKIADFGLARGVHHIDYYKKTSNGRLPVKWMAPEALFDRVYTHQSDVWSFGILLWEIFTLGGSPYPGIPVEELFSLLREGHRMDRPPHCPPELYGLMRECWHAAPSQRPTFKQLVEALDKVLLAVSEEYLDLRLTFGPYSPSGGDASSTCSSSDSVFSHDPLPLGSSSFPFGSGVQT
Chain of FGFR2 (P21802 22-821): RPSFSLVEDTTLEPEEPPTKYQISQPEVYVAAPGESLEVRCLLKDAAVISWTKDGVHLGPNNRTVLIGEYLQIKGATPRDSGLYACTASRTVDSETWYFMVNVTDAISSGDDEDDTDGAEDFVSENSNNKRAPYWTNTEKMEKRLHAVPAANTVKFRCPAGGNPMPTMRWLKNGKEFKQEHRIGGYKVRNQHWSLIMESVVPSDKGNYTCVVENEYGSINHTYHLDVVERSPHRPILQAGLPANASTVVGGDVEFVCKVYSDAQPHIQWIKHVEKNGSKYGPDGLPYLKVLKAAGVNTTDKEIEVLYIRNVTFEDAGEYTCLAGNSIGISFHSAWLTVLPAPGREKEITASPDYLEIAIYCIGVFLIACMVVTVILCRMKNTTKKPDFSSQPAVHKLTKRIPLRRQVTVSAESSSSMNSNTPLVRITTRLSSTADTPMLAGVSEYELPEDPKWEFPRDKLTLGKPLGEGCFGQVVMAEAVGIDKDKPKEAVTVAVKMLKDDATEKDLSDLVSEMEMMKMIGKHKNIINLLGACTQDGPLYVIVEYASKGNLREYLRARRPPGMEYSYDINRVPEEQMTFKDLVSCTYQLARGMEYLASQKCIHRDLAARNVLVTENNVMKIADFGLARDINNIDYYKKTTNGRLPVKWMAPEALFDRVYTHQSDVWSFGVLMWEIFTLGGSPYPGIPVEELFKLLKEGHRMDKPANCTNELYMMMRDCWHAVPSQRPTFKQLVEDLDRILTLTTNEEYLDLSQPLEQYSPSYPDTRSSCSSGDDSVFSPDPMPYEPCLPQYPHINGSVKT
Chain of FGFR1 (P11362 22-822): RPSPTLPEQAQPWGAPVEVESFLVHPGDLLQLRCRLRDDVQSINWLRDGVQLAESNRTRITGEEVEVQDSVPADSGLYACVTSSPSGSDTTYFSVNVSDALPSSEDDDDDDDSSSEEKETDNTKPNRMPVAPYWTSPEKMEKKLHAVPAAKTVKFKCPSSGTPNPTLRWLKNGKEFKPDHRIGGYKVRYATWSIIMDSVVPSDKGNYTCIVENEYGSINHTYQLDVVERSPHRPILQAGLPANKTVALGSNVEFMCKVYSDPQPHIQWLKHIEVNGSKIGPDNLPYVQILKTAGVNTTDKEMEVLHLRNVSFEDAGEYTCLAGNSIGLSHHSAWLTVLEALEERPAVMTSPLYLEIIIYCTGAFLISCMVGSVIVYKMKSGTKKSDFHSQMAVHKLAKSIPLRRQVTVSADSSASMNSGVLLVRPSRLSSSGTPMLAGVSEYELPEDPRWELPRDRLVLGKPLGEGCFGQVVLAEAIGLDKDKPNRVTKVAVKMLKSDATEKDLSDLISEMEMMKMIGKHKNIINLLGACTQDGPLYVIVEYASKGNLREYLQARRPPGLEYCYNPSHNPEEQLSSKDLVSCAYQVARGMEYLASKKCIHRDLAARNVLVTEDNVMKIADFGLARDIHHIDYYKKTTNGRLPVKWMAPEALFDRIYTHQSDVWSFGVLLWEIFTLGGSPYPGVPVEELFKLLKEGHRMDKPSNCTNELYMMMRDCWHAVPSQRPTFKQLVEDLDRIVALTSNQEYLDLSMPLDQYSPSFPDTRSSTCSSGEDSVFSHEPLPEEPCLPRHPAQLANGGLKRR
Chain of FGFR3 enzyme (P22607 23-806): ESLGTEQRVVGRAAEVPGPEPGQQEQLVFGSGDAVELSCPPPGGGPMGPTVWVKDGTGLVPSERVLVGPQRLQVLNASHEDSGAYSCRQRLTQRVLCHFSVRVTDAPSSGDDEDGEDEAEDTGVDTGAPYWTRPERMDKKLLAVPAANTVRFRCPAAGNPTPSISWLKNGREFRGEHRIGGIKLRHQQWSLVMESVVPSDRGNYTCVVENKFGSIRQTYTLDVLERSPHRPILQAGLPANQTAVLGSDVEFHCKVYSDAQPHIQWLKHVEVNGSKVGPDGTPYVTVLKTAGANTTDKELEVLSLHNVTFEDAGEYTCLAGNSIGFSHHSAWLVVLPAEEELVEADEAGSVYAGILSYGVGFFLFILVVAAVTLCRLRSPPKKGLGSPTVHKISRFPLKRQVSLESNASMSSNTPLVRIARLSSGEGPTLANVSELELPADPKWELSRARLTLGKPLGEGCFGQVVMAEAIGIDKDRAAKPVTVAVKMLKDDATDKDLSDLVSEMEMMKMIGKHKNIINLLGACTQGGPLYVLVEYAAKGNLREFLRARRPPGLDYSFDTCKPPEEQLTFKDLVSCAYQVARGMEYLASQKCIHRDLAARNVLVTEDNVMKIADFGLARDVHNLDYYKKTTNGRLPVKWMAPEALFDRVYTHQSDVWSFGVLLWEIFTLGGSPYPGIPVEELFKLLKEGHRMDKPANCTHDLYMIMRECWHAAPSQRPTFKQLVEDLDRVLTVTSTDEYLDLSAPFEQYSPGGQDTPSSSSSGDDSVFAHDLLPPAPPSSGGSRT

SMILES	pIC50 (FGFR2; pre-incubated for 4 hours)	pIC50 (FGFR3 enzyme; [1])	pIC50 (FGFR4; pre-incubated for 4 hours)	FGFR1/FGFR3 IC50 ratio (FGFR3 enzyme; pre-incubated for 4 hours)	FGFR4/FGFR3 IC50 ratio (FGFR3 enzyme; pre-incubated for 4 hours)	IC50 (FGFR1; pre-incubated for 4 hours)	other results
COc1cc(OC)c(F)c(N2Cc3cnc(-c4nn(CC#N)cc4C#N)cc3C3(CC3)C2=O)c1F [Example 174, 1-(cyanomethyl)-3-(2′-(2,6-difluoro-3,5-dimethoxyphenyl)-3′-oxo-2′,3′-dihydro-1′H-spiro[cyclopropane-1,4′-[2,7]naphthyridine]-6′-yl)-1H-pyrazole-4-carbonitrile]	< 6.70	< 6.70	7.52 to 8.00				FGFR1/FGFR4 IC50 ratio (FGFR4; pre-incubated for 4 hours): >100; FGFR2/FGFR4 IC50 ratio (FGFR4; pre-incubated for 4 hours): >10; FGFR3/FGFR4 IC50 ratio (FGFR4; pre-incubated for 4 hours): >25; pIC50 (FGFR1; [2]): < 6.70
CCn1cc(-c2cc3c(cn2)CN(c2c(F)c(OC)cc(OC)c2F)C(=O)C32CC2)c(C)n1 [Example 158, 2′-(2,6-difluoro-3,5-dimethoxyphenyl)-6′-(1-ethyl-3-methyl-1H-pyrazol-4-yl)-1′H-spiro[cyclopropane-1,4′-[2,7]naphthyridin]-3′(2′H)-one]	> 8.00	> 8.00	7.52 to 8.00	>5	>3	30 to 200 nM	
COc1cc(OC)c(F)c(N2Cc3cnc(-c4cn(C)nc4C)cc3N(c3cn[nH]c3)C2=O)c1F [Example 129, 3-(2,6-difluoro-3,5-dimethoxyphenyl)-7-(1,3-dimethyl-1H-pyrazol-4-yl)-1-(1H-pyrazol-4-yl)-3,4-dihydropyrido[4,3-d]pyrimidin-2(1H)-one]	> 8.00	> 8.00	6.70 to 7.52	>5	>10	10 to 30 nM	
CNC(=O)c1ccc(-c2cc3c(cn2)CN(c2c(F)c(OC)cc(OC)c2F)C(=O)C32CC2)cc1 [Example 19, 4-(2′-(2,6-difluoro-3,5-dimethoxyphenyl)-3′-oxo-2′,3′-dihydro-1′H-spiro[cyclopropane-1,4′-[2,7]naphthyridine]-6′-yl)-N-methylbenzamide]	> 8.00	> 8.00	> 8.00	>5		10 to 30 nM	
COc1cc(OC)c(F)c(N2Cc3cnc(-c4nn(C)cc4C#N)cc3C3(CC3)C2=O)c1F [Example 172, 3-(2′-(2,6-difluoro-3,5-dimethoxyphenyl)-3′-oxo-2′,3′-dihydro-1′H-spiro[cyclopropane-1,4′-[2,7]naphthyridine]-6′-yl)-1-methyl-1H-pyrazole-4-carbonitrile]	< 6.70	< 6.70	7.52 to 8.00				FGFR1/FGFR4 IC50 ratio (FGFR4; pre-incubated for 4 hours): >50; FGFR2/FGFR4 IC50 ratio (FGFR4; pre-incubated for 4 hours): >25; FGFR3/FGFR4 IC50 ratio (FGFR4; pre-incubated for 4 hours): >10; pIC50 (FGFR1; [2]): < 6.70
COc1cc(OC)c(F)c(N2Cc3cnc(-c4cn(C5CCN(C)C5)nc4C)cc3C3(CC3)C2=O)c1F (stereo not drawn) [Example 163, 2′-(2,6-difluoro-3,5-dimethoxyphenyl)-6′-(3-methyl-1-(1-methylpyrrolidin-3-yl)-1H-pyrazol-4-yl)-1′H-spiro[cyclopropane-1,4′-[2,7]naphthyridin]-3′(2′H)-one]	> 8.00	> 8.00	6.70 to 7.52	>3	>3	30 to 200 nM	
COc1cc(OC)c(F)c(N2Cc3cnc(-c4cn(C)nc4C)cc3N(c3ccc(F)c(F)c3)C2=O)c1F [Example 102, 3-(2,6-difluoro-3,5-dimethoxyphenyl)-1-(3,4-difluorophenyl)-7-(1,3-dimethyl-1H-pyrazol-4-yl)-3,4-dihydropyrido[4,3-d]pyrimidin-2(1H)-one]	7.52 to 8.00	7.52 to 8.00	6.70 to 7.52	>3	>10	30 to 200 nM	
COc1cc(OC)c(F)c(N2Cc3cnc(-c4cn(Cc5cccnc5)nc4C)cc3C3(CC3)C2=O)c1F [Example 155, 2′-(2,6-difluoro-3,5-dimethoxyphenyl)-6′-(3-methyl-1-(pyridin-3-ylmethyl)-1H-pyrazol-4-yl)-1′H-spiro[cyclopropane-1,4′-[2,7]naphthyridin]-3′(2′H)-one]	6.70 to 7.52	7.52 to 8.00	6.70 to 7.52	>5	>1	30 to 200 nM	
COc1cc(OC)c(F)c(N2Cc3cnc(-c4cn(CCC#N)nc4C)cc3C3(CC3)C2=O)c1F [Example 156, 3-(4-(2′-(2,6-difluoro-3,5-dimethoxyphenyl)-3′-oxo-2′,3′-dihydro-1′H-spiro[cyclopropane-1,4,-[2,7]naphthyridine]-6′-yl)-3-methyl-1H-pyrazol-1-yl)propanenitrile]	7.52 to 8.00	> 8.00	7.52 to 8.00	>5	>1	30 to 200 nM	
COc1cc(OC)c(F)c(N2Cc3cnc(-c4cn(C)nc4C)cc3N(C3CCN(S(C)(=O)=O)CC3)C2=O)c1F [Example 71, 3-(2,6-difluoro-3,5-dimethoxyphenyl)-7-(1,3-dimethyl-1H-pyrazol-4-yl)-1-(1-(methylsulfonyl)piperidin-4-yl)-3,4-dihydropyrido[4,3-d]pyrimidin-2(1H)-one]	6.70 to 7.52		6.70 to 7.52	>5	>3		pIC50 (FGFR3 enzyme): 7.52 to 8.00; pIC50 (FGFR1): 6.70 to 7.52
COc1cc(OC)c(F)c(N2Cc3cnc(-c4cc(N)c(F)cc4C)cc3C3(CC3)C2=O)c1F [Example 2, 6′-(5-amino-4-fluoro-2-methylphenyl)-2′-(2,6-difluoro-3,5-dimethoxyphenyl)-1′H-spiro[cyclopropane-1,4′-[2,7]naphthyridin]-3′(2′H)-one]	< 6.70	< 6.70	6.70 to 7.52				pIC50 (FGFR2; [3]): < 6.70; pIC50 (FGFR3 enzyme; pre-incubated for 5 to 10 minutes, read-out: FGFR3 IC50): < 6.70; FGFR1/FGFR4 IC50 ratio (FGFR4; [3]): >10; FGFR2/FGFR4 IC50 ratio (FGFR4; [3]): >10; FGFR3/FGFR4 IC50 ratio (FGFR4; [3]): >10; FGFR1/FGFR4 IC50 ratio (FGFR4; pre-incubated for 4 hours): >10; FGFR2/FGFR4 IC50 ratio (FGFR4; pre-incubated for 4 hours): >10; FGFR3/FGFR4 IC50 ratio (FGFR4; pre-incubated for 4 hours): >10; pIC50 (FGFR4; [3]): 6.70 to 7.52; pIC50 (FGFR1; read-out: FGFR1 IC50, pre-incubated for 5 to 10 minutes): < 6.70; pIC50 (FGFR1; [2]): < 6.70
COc1cc(OC)c(F)c(N2Cc3cnc(-c4cn(C5CCN(CC#N)C5)nc4C)cc3C3(CC3)C2=O)c1F (stereo not drawn) [Example 154, 2-(3-(4-(2′-(2,6-difluoro-3,5-dimethoxyphenyl)-3′-oxo-2′,3′-dihydro-1′H-spiro[cyclopropane-1,4′-[2,7]naphthyridine]-6′-yl)-3-methyl-1H-pyrazol-1-yl)pyrrolidin-1-yl)acetonitrile]	7.52 to 8.00	7.52 to 8.00	6.70 to 7.52	>5	>3	30 to 200 nM	
COc1cc(OC)c(F)c(N2Cc3cnc(-c4cn(C)nc4C)cc3N(C3CC3)C2=O)c1F [Example 83, 1-cyclopropyl-3-(2,6-difluoro-3,5-dimethoxyphenyl)-7-(1,3-dimethyl-1H-pyrazol-4-yl)-3,4-dihydropyrido[4,3-d]pyrimidin-2(1H)-one]	6.70 to 7.52	7.52 to 8.00	< 6.70	>5	>5	30 to 200 nM	
COc1cc(OC)c(F)c(N2Cc3cnc(-c4cn(C)nc4C)cc3N(C3CCCC3)C2=O)c1F [Example 32, 1-cyclopentyl-3-(2,6-difluoro-3,5-dimethoxyphenyl)-7-(1,3-dimethyl-1H-pyrazol-4-yl)-3,4-dihydropyrido[4,3-d]pyrimidin-2(1H)-one]	> 8.00	> 8.00	7.52 to 8.00	>1	>5	10 to 30 nM	
COc1cc(OC)c(F)c(N2Cc3cnc(-c4cnn(C5CCN(S(C)(=O)=O)C5)c4)cc3C3(CC3)C2=O)c1F (stereo not drawn) [Example 147, 2′-(2,6-difluoro-3,5-dimethoxyphenyl)-6′-(1-(1-(methylsulfonyl)pyrrolidin-3-yl)-1H-pyrazol-4-yl)-1′H-spiro[cyclopropane-1,4′-[2,7]naphthyridin]-3′(2′H)-one]	> 8.00	> 8.00	> 8.00	>10	>3	10 to 30 nM	
COc1cc(OC)c(F)c(N2Cc3cnc(-c4cn(C)nc4C)cc3N(Cc3cnn(CC#N)c3)C2=O)c1F [Example 125, 2-(4-((3-(2,6-difluoro-3,5-dimethoxyphenyl)-7-(1,3-dimethyl-1H-pyrazol-4-yl)-2-oxo-3,4-dihydropyrido[4,3-d]pyrimidin-1(2H)-yl)methyl)-1H-pyrazol-1-yl)acetonitrile]	> 8.00	7.52 to 8.00	6.70 to 7.52	>5	>5	30 to 200 nM	
COc1cc(OC)c(F)c(N2Cc3cnc(-c4cn(C)nc4C)cc3N(c3ccc(F)cc3)C2=O)c1F [Example 40, 3-(2,6-difluoro-3,5-dimethoxyphenyl)-7-(1,3-dimethyl-1H-pyrazol-4-yl)-1-(4-fluorophenyl)-3,4-dihydropyrido[4,3-d]pyrimidin-2(1H)-one]	> 8.00	> 8.00	6.70 to 7.52	>10	>10	30 to 200 nM	
COc1cc(OC)c(F)c(N2Cc3cnc(-c4cn(C)nc4C)cc3N(C3CCOC3)C2=O)c1F (stereo not drawn) [Example 33, 3-(2,6-difluoro-3,5-dimethoxyphenyl)-7-(1,3-dimethyl-1H-pyrazol-4-yl)-1-(tetrahydrofuran-3-yl)-3,4-dihydropyrido[4,3-d]pyrimidin-2(1H)-one]	> 8.00	> 8.00	6.70 to 7.52	>5	>5	30 to 200 nM	
